Experiments:
[1] = system: pupil diameter; experiment: Pupillometry; format: in vivo, human; conditions: trial A; for Pupil diameter, predose: before first dose of segment
[2] = system: healthy participants; experiment: Abuse liability visual analog scales; format: in vivo, human; conditions: trial A, n = 43, 0–100 mm VAS after seventh dose, M (SD)
[3] = system: cold-induced pain; experiment: Cold pressor test; format: in vivo, human; conditions: trial A
[4] = system: cold-induced pain; conditions: VAS, mean [SD], cited from earlier work
[5] = cited from earlier work
[6] = achiral analyses of blood; intoxication with the labelled substance; cited from earlier work
[7] = tramadol and its metabolites; cited from earlier work
[8] = 12 participants, 5 days rifampicin, 100 mg oral tramadol; cited from earlier work
[9] = system: healthy participants; experiment: Drug-related adverse events
[10] = system: healthy participants; experiment: Respiratory rate; conditions: trial B (with paroxetine), n = 60; MPD (SD)

COc1cccc(C2(O)CCCCC2CN(C)C)c1 (centres unmarked) [Tramadol, tramadol]
pupil diameter, mean paired reduction compared with placebo ([1]; after dosing, mean (SD)): −.7 (.6) mm
Pupil diameter, after seventh dose ([1]; n = 43, M (SD)): 5.5 (1.1) mm
Pupil diameter, predose ([1]; n = 43, M (SD)): 6.1 (.9) mm
Pupil diameter, predose ([1]; n = 43, M (SD), listed as tramadol): 6.1 [.9] mm
Drug liking-disliking [2]: 48(15) mm
Strength of drug effect [2]: 32 (29) mm
Take drug again [2]: 47(18) mm
Strength of drug effect ([2]; listed as tramadol): 32 [29] mm
average duration of tolerance to pain [3]: 62 s
peak mean pain perception to cold after tramadol ([4]; after a single 50 mg dose of tramadol): 5.0 [2.3] cm
peak mean pain perception to cold before tramadol ([4]; before a single 50 mg dose of tramadol): 6.3 [2.0] cm
lethal dose [5]: > 5 g
median ingested dose in overdose with respiratory depression ([5]; in vivo): 2,500 mg
median ingested dose in overdose with no respiratory depression ([5]; range = 450−6,000 mg): 1,000 mg
mean blood M1 level in fatal intoxications [6]: 1,900 ng/mL
tramadol dose appearing in the urine [7]: > 90%
decrease of AUC by rifampicin induction [8]: 59%
Deaths ([9]; trial A): 0 (0) n (%)
Severe AEs ([9]; trial A): 0 (0) n (%)
participants reporting drug-related AEs ([9]; trial A): 49%
Dizziness ([9]; trial A, all): 5(12) n (%)
Euphoria ([9]; trial A, all): 0 (0) n (%)
Feel abnormal ([9]; trial A, all): 1 (2) n (%)
Feel hot ([9]; trial A, all): 0 (0) n (%)
Headache ([9]; trial A, all): 7(17) n (%)
Nausea ([9]; trial A, all): 5(12) n (%)
Presyncope ([9]; trial A, all): 0 (0) n (%)
Pruritus ([9]; trial A, all): 4(10) n (%)
Somnolence ([9]; trial A, all): 2 (5) n (%)
Spasticity ([9]; trial A, all): 1 (2) n (%)
Sweating ([9]; trial A, all): 0 (0) n (%)
Vomiting ([9]; trial A, all): 1 (2) n (%)
Dizziness ([9]; trial A, male): 5(12) n (%)
Euphoria ([9]; trial A, male): 0 (0) n (%)
Feel abnormal ([9]; trial A, male): 1 (2) n (%)
Feel hot ([9]; trial A, male): 0 (0) n (%)
Headache ([9]; trial A, male): 7(17) n (%)
Nausea ([9]; trial A, male): 5(12) n (%)
Presyncope ([9]; trial A, male): 0 (0) n (%)
Pruritus ([9]; trial A, male): 4(10) n (%)
Somnolence ([9]; trial A, male): 2 (5) n (%)
Spasticity ([9]; trial A, male): 1 (2) n (%)
Sweating ([9]; trial A, male): 0 (0) n (%)
Vomiting ([9]; trial A, male): 1 (2) n (%)
All drug-related AEs ([9]; trial A, n = 43 (all male)): 20 (49) n (%)
Deaths ([9]; trial B): 0 (0) n (%)
Severe AEs ([9]; trial B): 0 (0) n (%)
participants reporting drug-related AEs ([9]; trial B (with paroxetine)): 50%
All drug-related AEs ([9]; trial B (with paroxetine), n = 60): 30 (50) n (%)
Dizziness ([9]; trial B, all): 8(13) n (%)
Euphoria ([9]; trial B, all): 1 (2) n (%)
Feel abnormal ([9]; trial B, all): 2 (3) n (%)
Feel hot ([9]; trial B, all): 0 (0) n (%)
Headache ([9]; trial B, all): 6(10) n (%)
Nausea ([9]; trial B, all): 8(13) n (%)
Presyncope ([9]; trial B, all): 1 (2) n (%)
Pruritus ([9]; trial B, all): 1 (2) n (%)
Somnolence ([9]; trial B, all): 4(7) n (%)
Spasticity ([9]; trial B, all): 3 (5) n (%)
Sweating ([9]; trial B, all): 1 (2) n (%)
Vomiting ([9]; trial B, all): 2 (3) n (%)
Dizziness ([9]; trial B, female): 4(22) n (%)
Euphoria ([9]; trial B, female): 0 (0) n (%)
Feel abnormal ([9]; trial B, female): 0 (0) n (%)
Feel hot ([9]; trial B, female): 0 (0) n (%)
Headache ([9]; trial B, female): 6 (33) n (%)
Nausea ([9]; trial B, female): 2(11) n (%)
Presyncope ([9]; trial B, female): 0 (0) n (%)
Pruritus ([9]; trial B, female): 1 (6) n (%)
Somnolence ([9]; trial B, female): 2(11) n (%)
Spasticity ([9]; trial B, female): 0 (0) n (%)
Sweating ([9]; trial B, female): 0 (0) n (%)
Vomiting ([9]; trial B, female): 0 (0) n (%)
Dizziness ([9]; trial B, male): 4(10) n (%)
Euphoria ([9]; trial B, male): 1 (2) n (%)
Feel abnormal ([9]; trial B, male): 2 (5) n (%)
Feel hot ([9]; trial B, male): 0 (0) n (%)
Headache ([9]; trial B, male): 0 (0) n (%)
Nausea ([9]; trial B, male): 6(14) n (%)
Presyncope ([9]; trial B, male): 1 (2) n (%)
Pruritus ([9]; trial B, male): 0 (0) n (%)
Somnolence ([9]; trial B, male): 2 (5) n (%)
Spasticity ([9]; trial B, male): 3 (7) n (%)
Sweating ([9]; trial B, male): 1 (2) n (%)
Vomiting ([9]; trial B, male): 2 (5) n (%)
headache incidence, tramadol compared with desmetramadol AE profile ([9]; trial B, same participants): −40%
nausea incidence, tramadol compared with desmetramadol AE profile ([9]; trial B, same participants): −50%
presyncope incidence, tramadol compared with desmetramadol AE profile ([9]; trial B, same participants): −83%
pruritus incidence, tramadol compared with desmetramadol AE profile ([9]; trial B, same participants): −75%
somnolence incidence, tramadol compared with desmetramadol AE profile ([9]; trial B, same participants): −60%
vomiting incidence, tramadol compared with desmetramadol AE profile ([9]; trial B, same participants): −78%
Average postdose respiratory rate, mean paired difference versus placebo [10]: −.34 [.99] min^−1

Reference: publication PMC6790288 (The journal of pain : official journal of the American Pain …, 2019)
